Measurements: US9108921B2, “Therapeutic compounds and compositions” (AGIOS PHARMACEUTICALS, INC, priority 2014, dated 2015)

How the values were obtained:
[1] = target: PKR R510Q (Homo sapiens, UniProt P30613, R510Q); assay: PKR Mutant Assay, AC50 against PKR R510Q; format: biochemical; settings: mutant PKR R510Q enzyme
Outline: (§1)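 Human PKR (WT or mutant, 80-400 ng/well) in 50 mM Tris pH 7.5, 100 mM KCl, 5 mM MgCl2, 1 mM DTT, 0.03% BSA with PEP 0.1-0.5 mM, NADH 180 uM and LDH, preincubated 60 min at room temperature with compound (11-point 3-fold series from 100 μM final, 1% DMSO). ADP 0.22-1.65 mM started reaction; A340 followed.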

[2] = target: PKR R532W (Homo sapiens, UniProt P30613, R532W); assay: PKR Mutant Assay, AC50 against PKR R532W; format: biochemical; settings: mutant PKR R532W enzyme
Sequence of PKR R532W (P30613 whole entry R532W): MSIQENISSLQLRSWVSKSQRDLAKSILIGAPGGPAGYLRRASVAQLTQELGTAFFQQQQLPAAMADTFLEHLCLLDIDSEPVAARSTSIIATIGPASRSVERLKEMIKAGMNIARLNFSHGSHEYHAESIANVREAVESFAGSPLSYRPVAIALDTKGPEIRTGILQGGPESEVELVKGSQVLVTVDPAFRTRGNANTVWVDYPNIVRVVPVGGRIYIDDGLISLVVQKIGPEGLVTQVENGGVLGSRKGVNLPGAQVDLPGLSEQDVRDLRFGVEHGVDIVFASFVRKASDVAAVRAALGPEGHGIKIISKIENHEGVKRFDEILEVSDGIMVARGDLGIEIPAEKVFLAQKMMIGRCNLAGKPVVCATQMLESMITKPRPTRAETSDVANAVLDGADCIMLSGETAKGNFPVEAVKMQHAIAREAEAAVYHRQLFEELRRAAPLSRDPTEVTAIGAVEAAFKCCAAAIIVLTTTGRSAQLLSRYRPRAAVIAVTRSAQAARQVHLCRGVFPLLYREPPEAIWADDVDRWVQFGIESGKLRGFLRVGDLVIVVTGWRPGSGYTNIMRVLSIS
Outline: as §1

[3] = target: T1, PKR WT (Homo sapiens, UniProt P30613); assay: PKR WT enzymatic AC50 assay; format: biochemical; settings: wild type PKR
T1 sequence (P30613 whole entry): as the sequence (P30613 whole entry R532W) above, with W532R counted along it
Outline: as §1

[4] = target: T1, PKR WT; assay: PKR WT cell based AC50 assay; settings: wild type PKR

Sequence of PKR R510Q (P30613 whole entry R510Q): as the sequence (P30613 whole entry R532W) above, with R510Q, W532R counted along it

Row | SMILES | AC50 [1] [µM] | AC50 [2] [µM] | AC50 [3] [µM] | AC50 [4] [µM]
1 | Cc1cc(C(=O)N2CCC(O)(Cc3ccccc3)CC2)ccc1NS(=O)(=O)c1cccc2cccnc12 [Compound 101, N-(4-(4-benzyl-4-hydroxypiperidine-1-carbonyl)-2-methylphenyl)quinoline-8-sulfonamide] | < 0.1 | < 0.1 | < 0.1 | < 0.1
2 | O=C(c1ccc(NS(=O)(=O)c2cccc3cccnc23)cc1)N1CCC(O)(Cc2cccc(F)c2)CC1 [Compound 105, N-(4-(4-(3-fluorobenzyl)-4-hydroxypiperidine-1-carbonyl)phenyl)quinoline-8-sulfonamide] | < 0.1 | < 0.1 | < 0.1 | < 0.1
3 | Cc1ccccc1CC1(O)CCN(C(=O)c2ccc(NS(=O)(=O)c3cccc4cccnc34)cc2)CC1 [Compound 108, N-(4-(4-hydroxy-4-(2-methylbenzyl)piperidine-1-carbonyl)phenyl)quinoline-8-sulfonamide] | < 0.1 | < 0.1 | < 0.1 | < 0.1
4 | O=C(c1ccc(NS(=O)(=O)c2cccc3cccnc23)cc1)N1CCC(O)(Cc2ccccc2C(F)(F)F)CC1 [Compound 109, N-(4-(4-hydroxy-4-(2-(trifluoromethyl)benzyl)piperidine-1-carbonyl)phenyl)quinoline-8-sulfonamide] | < 0.1 | < 0.1 | < 0.1 | < 0.1
5 | O=C(c1ccc(NS(=O)(=O)c2cccc3cccnc23)cc1)N1CCC(O)(Cc2ccccc2F)CC1 [Compound 110, N-(4-(4-(2-fluorobenzyl)-4-hydroxypiperidine-1-carbonyl)phenyl)quinoline-8-sulfonamide] | < 0.1 | < 0.1 | < 0.1 | < 0.1
6 | COc1cc(NS(=O)(=O)c2cccc3cccnc23)ccc1C(=O)N1CCC(O)(Cc2ccccc2)CC1 [Compound 112, N-(4-(4-benzyl-4-hydroxypiperidine-1-carbonyl)-3-methoxyphenyl)quinoline-8-sulfonamide] | < 0.1 | < 0.1 | < 0.1 | 0.101 to 1
7 | O=C(c1ccc(NS(=O)(=O)c2cccc3nccnc23)cc1)N1CCC(O)(Cc2ccccc2C(F)(F)F)CC1 [Compound 114, N-(4-(4-hydroxy-4-(2-(trifluoromethyl)benzyl)piperidine-1-carbonyl)phenyl)quinoxaline-5-sulfonamide] | < 0.1 | < 0.1 | < 0.1 | < 0.1
8 | O=C(c1ccc(NS(=O)(=O)c2cccc3cccnc23)cc1F)N1CCC(O)(Cc2ccccc2)CC1 [Compound 115, N-(4-(4-benzyl-4-hydroxypiperidine-1-carbonyl)-3-fluorophenyl)quinoline-8-sulfonamide] | < 0.1 | < 0.1 | < 0.1 | < 0.1
9 | O=C(c1ccc(NS(=O)(=O)c2cccc3cccnc23)cc1)N1CCC(CO)(Cc2ccccc2)CC1 [Compound 149, N-(4-(4-benzyl-4-(hydroxymethyl)piperidine-1-carbonyl)phenyl)quinoline-8-sulfonamide] | – | < 0.1 | < 0.1 | < 0.1
10 | CS(=O)(=O)c1cccc(C2(O)CCN(C(=O)c3ccc(NS(=O)(=O)c4cccc5cccnc45)cc3)CC2)c1 [Compound 182, N-(4-(4-hydroxy-4-(3-(methylsulfonyl)phenyl)piperidine-1-carbonyl)phenyl)quinoline-8-sulfonamide] | 1.01 to 10 | – | < 0.1 | < 0.1
11 | O=C(c1ccc(NS(=O)(=O)c2cccc3scnc23)cc1)N1CCC(O)(COCC(F)(F)F)CC1 [Compound 386, N-(4-(4-hydroxy-4-((2,2,2-trifluoroethoxy)methyl)piperidine-1-carbonyl)phenyl)benzo[d]thiazole-4-sulfonamide] | 0.101 to 1 | 0.101 to 1 | 0.101 to 1 | –
12 | CC(F)(F)CC1(O)CCN(C(=O)c2ccc(NS(=O)(=O)c3cccc4scnc34)cc2)CC1 [Compound 413] | 0.101 to 1 | 0.101 to 1 | 0.101 to 1 | –
13 | CC(C)CC1(O)CCN(C(=O)c2ccc(NS(=O)(=O)c3cccc4[nH]c(=O)cnc34)cc2)CC1 [Compound 438] | 1.01 to 10 | 1.01 to 10 | 1.01 to 10 | –

More lines, now with the values ahead:

Row | AC50 [1] [µM] | AC50 [2] [µM] | AC50 [3] [µM] | AC50 [4] [µM] | SMILES
14 | < 0.1 | < 0.1 | < 0.1 | < 0.1 | O=C(c1ccc(NS(=O)(=O)c2cccc3cccnc23)cc1)N1CCC(O)(c2cccc(F)c2F)CC1 [Compound 100, N-[4-[4-(2,3-difluorophenyl)-4-hydroxy-piperidine-1-carbonyl]phenyl]quinoline-8-sulfonamide]
15 | < 0.1 | < 0.1 | < 0.1 | < 0.1 | O=C(c1ccc(NS(=O)(=O)c2cccc3c2OCCC3)cc1)N1CCC(O)(c2ccccc2Cl)CC1 [Compound 102, N-(4-(4-(2-chlorophenyl)-4-hydroxypiperidine-1-carbonyl)phenyl)chroman-8-sulfonamide]
16 | < 0.1 | < 0.1 | < 0.1 | < 0.1 | Cc1ccccc1C1(O)CCN(C(=O)c2ccc(NS(=O)(=O)c3cccc4cccnc34)cc2)CC1 [Compound 103, N-(4-(4-hydroxy-4-(o-tolyl)piperidine-1-carbonyl)phenyl)quinoline-8-sulfonamide]
17 | < 0.1 | < 0.1 | < 0.1 | < 0.1 | Cc1cc(C(=O)N2CCC(O)(c3ccccc3Cl)CC2)ccc1NS(=O)(=O)c1cccc2cccnc12 [Compound 104, N-(4-(4-(2-chlorophenyl)-4-hydroxypiperidine-1-carbonyl)-2-methylphenyl)quinoline-8-sulfonamide]
18 | < 0.1 | < 0.1 | < 0.1 | < 0.1 | O=C(c1ccc(NS(=O)(=O)c2cccc3cccnc23)cc1)N1CCC(O)(c2ccc(F)cc2Cl)CC1 [Compound 111, N-[4-[4-(2-chloro-4-fluoro-phenyl)-4-hydroxy-piperidine-1-carbonyl]phenyl]quinoline-8-sulfonamide]
19 | < 0.1 | < 0.1 | < 0.1 | < 0.1 | O=C(c1ccc(NS(=O)(=O)c2cccc3cccnc23)cc1)N1CCC(O)(c2ccccc2C(F)F)CC1 [Compound 113, N-[4-[4-[2-(difluoromethyl)phenyl]-4-hydroxy-piperidine-1-carbonyl]phenyl]quinoline-8-sulfonamide]
20 | < 0.1 | < 0.1 | < 0.1 | – | CNc1nc2c(S(=O)(=O)Nc3ccc(C(=O)N4CCC(O)(c5ccccc5Cl)CC4)cc3)cccc2s1 [Compound 409]
21 | > 10 | 0.101 to 1 | 0.101 to 1 | – | O=C(c1ccc(NS(=O)(=O)c2cccc3scnc23)cc1)N1CCC(O)(c2cn[nH]c2)CC1 [Compound 410, N-[4-[4-hydroxy-4-(1H-pyrazol-4-yl)piperidine-1-carbonyl]phenyl]benzothiazole-4-sulfonamide]
22 | > 10 | 1.01 to 10 | 1.01 to 10 | – | O=C(c1ccc(NS(=O)(=O)c2cccc3snnc23)cc1)N1CCC(O)(c2ccccc2Cl)CC1 [Compound 417]
23 | > 10 | > 10 | 1.01 to 10 | – | Nc1nc2cc(S(=O)(=O)Nc3ccc(C(=O)N4CCC(O)(c5ccccc5Cl)CC4)cc3)c(F)cc2s1 [Compound 418]
